Experimental data as given in patent US8816085B2 (Takeda GmbH, priority 2009, dated 2014).

Target: T1, PDE5A1 (human PDE5 from platelets) (Homo sapiens, UniProt O76074)
T1 construct: from tissue; host or cells: platelets from fresh blood of human donors (10,000 g supernatant of sonified platelets)
Experiment: Inhibition of type 5 phosphodiesterase (PDE5) activity, modified SPA test
Type: biochemical
Conditions: PDE5-containing human platelet lysate, 0.5 μM cGMP, value classes, read-out: PDE5A1 inhibitory values [measured as −logIC50 (mol/l)] (converted)
In short: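 Enzyme source: human platelet lysate (10,000 g supernatant), with 1 μM motapizone and 10 nM PDE2 inhibitor present. SPA format in 20 mM Tris pH 7.4, 5 mM Mg2+, 0.5 μM cGMP with [3H]cGMP tracer; 5 min preincubation at 37 °C, 15 min reaction, stopped with IBMX-containing beads. IC50 by non-linear regression.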

| SMILES | IC50 [nM] |
| --- | --- |
| Cc1[nH]c2c(-c3cc(F)ccc3OCC3CC3)ccnc2c1C(=O)N[C@H]1CC[C@H](NC(=O)[C@H](C)O)CC1 [Example F15, 7-[2-(Cyclopropylmethoxy)-5-fluorophenyl]-N-(trans-4-{[(2S)-2-hydroxypropanoyl]amino}cyclohexyl)-2-methyl-1H-pyrrolo[3,2-b]pyridine-3-carboxamide] | < 1 |
| Cc1[nH]c2c(-c3cc(F)ccc3OCC3CC3)ccnc2c1C(=O)N[C@H]1CC[C@@H](NC(=O)CO)CC1 [Example F16, 7-[2-(Cyclopropylmethoxy)-5-fluorophenyl]-N-{cis-4-[(hydroxyacetyl)amino]cyclohexyl}-2-methyl-1H-pyrrolo[3,2-b]pyridine-3-carboxamide] | 1 to 10 |
| COc1ccc(-c2ccnc3c(C(=O)NC4CCN(C(=O)CO)CC4)c(C)[nH]c23)c(OCC2CC2)c1 [Example F20, 7-[2-(Cyclopropylmethoxy)-4-methoxyphenyl]-N-[1-(hydroxyacetyl)piperidin-4-yl]-2-methyl-1H-pyrrolo[3,2-b]pyridine-3-carboxamide] | < 1 |
| COc1ccc(-c2ccnc3c(C(=O)NC4CCN(C(=O)[C@H](C)O)CC4)c(C)[nH]c23)c(OCC2CC2)c1 [Example F21, 7-[2-(Cyclopropylmethoxy)-4-methoxyphenyl]-N-{1-[(2S)-2-hydroxypropanoyl]piperidin-4-yl}-2-methyl-1H-pyrrolo[3,2-b]pyridine-3-carboxamide] | < 1 |
| COc1ccc(-c2ccnc3c(C(=O)N[C@H]4CC[C@H](NC(=O)CO)CC4)c(C)[nH]c23)c(OCC2CC2)c1 [Example F22, 7-[2-(Cyclopropylmethoxy)-4-methoxyphenyl]-N-{trans-4-[(hydroxyacetyl)amino]cyclohexyl}-2-methyl-1H-pyrrolo[3,2-b]pyridine-3-carboxamide] | < 1 |
| COc1ccc(-c2ccnc3c(C(=O)N[C@H]4CC[C@@H](NC(=O)CO)CC4)c(C)[nH]c23)c(OCC2CC2)c1 [Example F24, 7-[2-(Cyclopropylmethoxy)-4-methoxyphenyl]-N-{cis-4-[(hydroxyacetyl)amino]cyclohexyl}-2-methyl-1H-pyrrolo[3,2-b]pyridine-3-carboxamide] | < 1 |
| COc1ccc(OCC2CC2)c(-c2ccnc3c(C(=O)N[C@H]4CC[C@H](NC(=O)[C@H](C)O)CC4)c(C)[nH]c23)c1 [Example F29, 7-[2-(Cyclopropylmethoxy)-5-methoxyphenyl]-N-(trans-4-{[abs.(2S)-2-hydroxypropanoyl]amino}cyclohexyl)-2-methyl-1H-pyrrolo[3,2-b]pyridine-3-carboxamide] | < 1 |
| COc1ccc(OCC2CC2)c(-c2ccnc3c(C(=O)N[C@H]4CC[C@@H](NC(=O)CO)CC4)c(C)[nH]c23)c1 [Example F30, 7-[2-(Cyclopropylmethoxy)-5-methoxyphenyl]-N-{cis-4-[(hydroxyacetyl)amino]cyclohexyl}-2-methyl-1H-pyrrolo[3,2-b]pyridine-3-carboxamide] | < 1 |
| COc1ccc(OCC2CC2)c(-c2ccnc3c(C(=O)N[C@H]4CC[C@@H](NC(=O)[C@H](C)O)CC4)c(C)[nH]c23)c1 [Example F31, 7-[2-(Cyclopropylmethoxy)-5-methoxyphenyl]-N-(cis-4-{[(2S)-2-hydroxypropanoyl]amino}cyclohexyl)-2-methyl-1H-pyrrolo[3,2-b]pyridine-3-carboxamide] | < 1 |
| Cc1ccc(OCC2CC2)c(-c2ccnc3c(C(=O)NC4CCN(C(=O)CO)CC4)c(C)[nH]c23)c1 [Example F34, 7-[2-(Cyclopropylmethoxy)-5-methylphenyl]-N-[1-(hydroxyacetyl)piperidin-4-yl]-2-methyl-1H-pyrrolo[3,2-b]pyridine-3-carboxamide] | 1 to 10 |
| Cc1ccc(OCC2CC2)c(-c2ccnc3c(C(=O)NC4CCN(C(=O)[C@H](C)O)CC4)c(C)[nH]c23)c1 [Example F35, 7-[2-(cyclopropylmethoxy)-5-methylphenyl]-N-{1-[abs.(2S)-2-hydroxypropanoyl]piperidin-4-yl}-2-methyl-1H-pyrrolo[3,2-b]pyridine-3-carboxamide] | 1 to 10 |
| Cc1ccc(OCC2CC2)c(-c2ccnc3c(C(=O)N[C@H]4CC[C@H](NC(=O)CO)CC4)c(C)[nH]c23)c1 [Example F36, 7-[2-(Cyclopropylmethoxy)-5-methylphenyl]-N-{trans-4-[(hydroxyacetyl)amino]cyclohexyl}-2-methyl-1H-pyrrolo[3,2-b]pyridine-3-carboxamide] | 1 to 10 |

Next, values leading:

| IC50 [nM] | SMILES |
| --- | --- |
| 1 to 10 | Cc1[nH]c2c(-c3cc(F)ccc3OCC3CC3)ccnc2c1C(=O)NC1CCN(C(=O)[C@H](C)O)CC1 [Example F13, 7-[2-(Cyclopropylmethoxy)-5-fluorophenyl]-N-{1-[(2S)-2-hydroxypropanoyl]piperidin-4-yl}-2-methyl-1H-pyrrolo[3,2-b]pyridine-3-carboxamide] |
| < 1 | Cc1[nH]c2c(-c3cc(F)ccc3OCC3CC3)ccnc2c1C(=O)N[C@H]1CC[C@H](NC(=O)CO)CC1 [Example F14, 7-[2-(Cyclopropylmethoxy)-5-fluorophenyl]-N-{trans-4-[(hydroxyacetyl)amino]cyclohexyl}-2-methyl-1H-pyrrolo[3,2-b]pyridine-3-carboxamide] |
| 1 to 10 | Cc1[nH]c2c(-c3cc(F)ccc3OCC3CC3)ccnc2c1C(=O)N[C@H]1CC[C@@H](NC(=O)[C@H](C)O)CC1 [Example F17, 7-[2-(Cyclopropylmethoxy)-5-fluorophenyl]-N-(cis-4-{[abs.(2S)-2-hydroxypropanoyl]amino}cyclohexyl)-2-methyl-1H-pyrrolo[3,2-b]pyridine-3-carboxamide] |
| < 1 | COc1ccc(-c2ccnc3c(C(=O)N[C@H]4CC[C@H](NC(=O)[C@H](C)O)CC4)c(C)[nH]c23)c(OCC2CC2)c1 [Example F23, 7-[2-(Cyclopropylmethoxy)-4-methoxyphenyl]-N-(trans-4-{[(2S)-2-hydroxypropanoyl]amino}cyclohexyl)-2-methyl-1H-pyrrolo[3,2-b]pyridine-3-carboxamide] |
| < 1 | COc1ccc(-c2ccnc3c(C(=O)N[C@H]4CC[C@@H](NC(=O)[C@H](C)O)CC4)c(C)[nH]c23)c(OCC2CC2)c1 [Example F25, 7-[2-(Cyclopropylmethoxy)-4-methoxyphenyl]-N-(cis-4-{[(2S)-2-hydroxypropanoyl]amino}cyclohexyl)-2-methyl-1H-pyrrolo[3,2-b]pyridine-3-carboxamide] |
| 1 to 10 | COc1ccc(OCC2CC2)c(-c2ccnc3c(C(=O)NC4CCN(C(=O)CO)CC4)c(C)[nH]c23)c1 [Example F26, 7-[2-(Cyclopropylmethoxy)-5-methoxyphenyl]-N-[1-(hydroxyacetyl)piperidin-4-yl]-2-methyl-1H-pyrrolo[3,2-b]pyridine-3-carboxamide] |
| < 1 | COc1ccc(OCC2CC2)c(-c2ccnc3c(C(=O)NC4CCN(C(=O)[C@H](C)O)CC4)c(C)[nH]c23)c1 [Example F27, 7-[2-(Cyclopropylmethoxy)-5-methoxyphenyl]-N-{1-[(2S)-2-hydroxypropanoyl]piperidin-4-yl}-2-methyl-1H-pyrrolo[3,2-b]pyridine-3-carboxamide] |
| < 1 | COc1ccc(OCC2CC2)c(-c2ccnc3c(C(=O)N[C@H]4CC[C@H](NC(=O)CO)CC4)c(C)[nH]c23)c1 [Example F28, 7-[2-(Cyclopropylmethoxy)-5-methoxyphenyl]-N-{trans-4-[(hydroxyacetyl)amino]cyclohexyl}-2-methyl-1H-pyrrolo[3,2-b]pyridine-3-carboxamide] |
